# Laboratory results taken from publication PMC6721824, “IGFs Potentiate TAC3-induced SLα Expression via Upregulation of TACR3 Expression in Grass Carp Pituitary Cells” (Cells, 2019).
# Columns and labels:
# [1] = system: SLα mRNA expression in grass carp pituitary cells; assay: SLα mRNA expression (qPCR) in grass carp pituitary cells; assay type: cell-based, grass carp (Ctenopharyngodon idellus); conditions: for effect on SLα mRNA expression induced by IGF-I or senktide treatment alone: senktide 1 µM, IGF-I 100 nM; for effect on SLα mRNA expression induced by IGF-I or senktide treatment alone / effect on the synergistic effect on SLα mRNA expression caused by IGF-I and senktide cotreatment: inhibitors 10 µM, 2-APB 100 µM, calmidazolium 1 µM (Figure 5A–C); for effect on the synergistic effect on SLα mRNA expression caused by IGF-I and senktide cotreatment: senktide (1 µM) + IGF-I (100 nM); for SLα mRNA levels, activator alone: static incubation for 24 h, 8Br.cAMP 10 µM, forskolin 1 µM, Dic8 100 µM, TPA 10 µM, A23187 100 nM, BayK8644 100 nM (Figure 5D); for enhancement of the stimulatory effects of TAC3 gene products on SLα mRNA expression: IGF-I/-II cotreatment
# Method: (§1) Grass carp pituitary cells prepared by the trypsin/DNase digestion method were seeded in 24-well plates at ~2.5 × 10^6 cells/mL/well. On the following day, drug treatment was initiated by replacing the old medium with a testing medium with the appropriate levels of test substances, and the cells were then allowed to incubate at 28 °C for the duration as indicated. After drug treatment, total RNA was extracted from individual wells and reversely transcribed as above. The RT samples obtained were subjected to qPCR using a LightCycler SYBR Green I Kit (Roche, Stockholm, Sweden) with the primers mentioned above. In these studies, serial dilutions of plasmid DNA containing the ORF of SLα (GeneBank no.: EF372074) and TACR3 (GenBank no: JQ254913) cDNA were used as the standards for data calibration. Parallel real-time PCR measurement of β-actin was also conducted in individual experiments to serve as the internal control.
# (§2) For real-time PCR of SLα and TACR3 mRNA measurement, standard curves with a dynamic range of ≥10^5 and correlation coefficient of ≥0.95 were used for data calibration with the RotorGene-Q software 1.7 (Qiagen) under unsupervised mode. SLα and TACR3 mRNA data were normalized with the β-actin transcript level and then were transformed as a percentage of the mean value in the control group without drug treatment (as “%Ctrl”). For the calcium bioluminescence signals and raw data obtained from luciferase reporter assays, the luminescence signals or luciferase activity was expressed as “relative luminescence unit (RLU)” registered by the fluorescence plate reader. For individual samples of the luciferase reporter assay, the firefly luciferase activity detected was routinely normalized against Renilla Luciferase activity expressed in the same well and expressed as the luciferase activity ration (as “Luc Ratio”). For receptor binding assay, specific binding of FAM-NKBa was measured in terms of “Arbitrary Fluorescence Unit (AFU)”. The six replicates presented (expressed as Mean ± SEM) were pooled results from two individual experiments prior to statistical analysis; all data were tested for normality of distribution using the Shapiro–Wilk normality test. Then, one-way ANOVA and two-way ANOVA were used to test the significant difference according to different experiment groups. The differences between groups were considered as significant at P < 0.05 (“*”) or highly significant at P < 0.01 (“**”).
# [2] = system: TACR3 mRNA expression in grass carp pituitary cells; assay: TACR3 mRNA expression (qPCR) in grass carp pituitary cells; assay type: cell-based, grass carp (Ctenopharyngodon idellus); conditions: for effect on IGF-I-induced TACR3 mRNA expression: 24 h cotreatment with IGF-I (10 nM), inhibitors 10 µM, wortmannin 1 µM, rapamycin 20 nM; for TACR3 mRNA expression, time course: 100 nM, from 1 h to 24 h (Figure 3B); for TACR3 mRNA expression, dose-dependence: 24-h incubation, 0.01–100 nM (Figure 3C)
# Method: as §1, §2
# grass carp TACR3 = biological target: T1, grass carp TACR3 (Ctenopharyngodon idella, UniProt A0A075BDW2); assay: Fluorescence-based receptor binding assay, displacement of FAM-NKBa tracer; set-up: species or system grass carp (Ctenopharyngodon idellus); conditions: HEK-293 cells with stable expression of grass carp TACR3, 30 min pretreatment with competitor, then FAM-NKBa (10 nM) 30 min, 37 °C; bound given in μM; read-out: IC50 for displacing FAM-NKBa binding
# T1 sequence (A0A075BDW2 1-395): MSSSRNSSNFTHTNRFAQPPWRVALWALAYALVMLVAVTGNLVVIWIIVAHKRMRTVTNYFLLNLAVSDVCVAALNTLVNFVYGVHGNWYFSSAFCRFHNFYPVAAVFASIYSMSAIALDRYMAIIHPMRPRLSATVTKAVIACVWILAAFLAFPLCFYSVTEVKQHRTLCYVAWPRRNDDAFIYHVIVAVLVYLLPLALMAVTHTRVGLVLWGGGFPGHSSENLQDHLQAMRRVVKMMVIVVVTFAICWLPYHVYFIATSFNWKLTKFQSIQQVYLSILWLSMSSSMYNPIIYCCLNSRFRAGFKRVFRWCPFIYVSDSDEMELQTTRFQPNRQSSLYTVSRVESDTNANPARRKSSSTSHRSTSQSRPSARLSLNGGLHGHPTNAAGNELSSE
# Method: The cells were then harvested and seeded onto 24-well plates at a density of 0.1 million/well and incubated at 37 °C under 5% CO2 for 24 h prior to the experiments. On the day of the experiments, the culture medium was aspirated and replaced with 500 μL serum-free DMEM with or without appropriated levels of unlabeled competitors. Cells were then allowed to incubate for 30 min at 37 °C under 5% CO2 and saturated humidity. FAM Carboxyfluorescein-labeled NKBa, namely FAM-NKBa, was used as a tracer for receptor binding experiments, and a 50-μL volume of FAM-NKBa (10 nM) was added into individual wells. After further incubation for 30 min at 37 °C, the cells were washed twice and with 500 μl PBS each to remove unbound ligands. […] The supernatant from individual wells was then collected in a 96-wells black view plate, and fluorescence signals indicative of FAM-NKBa binding were registered using FluoStar OPTIMA with excitation at 490 nm and emission at 520 nm.
# For receptor binding assay, specific binding of FAM-NKBa was measured in terms of “Arbitrary Fluorescence Unit (AFU)”. The six replicates presented (expressed as Mean ± SEM) were pooled results from two individual experiments prior to statistical analysis; all data were tested for normality of distribution using the Shapiro–Wilk normality test. […]
compound,measurement,setting,value
NCCOB(c1ccccc1)c1ccccc1 [2-APB],effect on SLα mRNA expression induced by IGF-I or senktide treatment alone,[1],attenuated
same,effect on the synergistic effect on SLα mRNA expression caused by IGF-I and senktide cotreatment,[1],notably suppressed
Nc1ncnc2c1nc(Br)n2[C@@H]1O[C@@H]2COP(=O)(O)O[C@H]2[C@H]1O [8Br.cAMP],"SLα mRNA levels, activator alone",[1],effective in elevating SLα mRNA levels
CNc1ccc2oc(C[C@H]3O[C@@]4(CC[C@H]3C)O[C@H]([C@H](C)C(=O)c3ccc[nH]3)[C@H](C)C[C@H]4C)nc2c1C(=O)O [A23187],"SLα mRNA levels, activator alone",[1],effective in elevating SLα mRNA levels
COC(=O)C1=C(C)NC(C)=C([N+](=O)[O-])C1c1ccccc1C(F)(F)F (stereo not drawn) [BayK8644],"SLα mRNA levels, activator alone",[1],effective in elevating SLα mRNA levels
CCCCCCCC(=O)OCC(CO)OC(=O)CCCCCCC (stereo not drawn) [Dic8],"SLα mRNA levels, activator alone",[1],effective in elevating SLα mRNA levels
CN(C)CCCn1cc(C2=C(c3c[nH]c4ccccc34)C(=O)NC2=O)c2ccccc21 [GF109203X],effect on SLα mRNA expression induced by IGF-I or senktide treatment alone,[1],attenuated
same,effect on the synergistic effect on SLα mRNA expression caused by IGF-I and senktide cotreatment,[1],notably suppressed
O=S(=O)(NCCNC/C=C/c1ccc(Br)cc1)c1cccc2cnccc12 [H89],effect on SLα mRNA expression induced by IGF-I or senktide treatment alone,[1],attenuated
same,effect on the synergistic effect on SLα mRNA expression caused by IGF-I and senktide cotreatment,[1],notably suppressed
O=P(O)(O)C(O)c1ccc2ccccc2c1 (stereo not drawn) [HNMPA],effect on IGF-I-induced TACR3 mRNA expression,[2],not effective
CN([C@@H](Cc1ccc(OS(=O)(=O)c2cccc3cnccc23)cc1)C(=O)N1CCN(c2ccccc2)CC1)S(=O)(=O)c1cccc2cnccc12 [KN62],effect on SLα mRNA expression induced by IGF-I or senktide treatment alone,[1],attenuated
same,effect on the synergistic effect on SLα mRNA expression caused by IGF-I and senktide cotreatment,[1],notably suppressed
Cl.c1ccc(C2CCCC2NC2=NCCCCCCCCCCC2)cc1 (stereo not drawn) [MDL12330A],effect on SLα mRNA expression induced by IGF-I or senktide treatment alone,[1],attenuated
same,effect on the synergistic effect on SLα mRNA expression caused by IGF-I and senktide cotreatment,[1],notably suppressed
COc1cc([C@@H]2c3cc4c(cc3[C@H](O)[C@H]3COC(=O)[C@@H]23)OCO4)cc(OC)c1OC [PPP],effect on IGF-I-induced TACR3 mRNA expression,[2],partially inhibited
COc1ccc(Cl)cc1NC(=O)Nc1cc(C)nc2ccccc12 [PQ401],effect on IGF-I-induced TACR3 mRNA expression,[2],totally abolished
CC[C@H](NC(=O)c1c(C)c(-c2ccccc2)nc2ccccc12)c1ccccc1 [SB222200],effect on the potentiating effect induced by IGF-I + NKBRPa on SLα transcript expression,"[1]; antagonist 10 µM, IGF-I (100 nM) + NKBRPa (1 µM) (Figure 4F)",markedly reduced
same,effect on IGF-I- or NKBRPa-induced SLα transcript expression,"[1]; antagonist 10 µM, NKBRPa 1 µM, IGF-I 100 nM (Figure 4F)",suppress
CCCCCCCCCCCCCC(=O)O[C@@H]1[C@@H](C)[C@@]2(O)[C@@H](C=C(CO)C[C@]3(O)C(=O)C(C)=C[C@@H]23)[C@@H]2C(C)(C)[C@]12OC(C)=O [TPA],"SLα mRNA levels, activator alone",[1],effective in elevating SLα mRNA levels
COc1ccc2c(c1)CC[C@@H]1[C@@H]2CC[C@]2(C)[C@@H](NCCCCCCN3C(=O)C=CC3=O)CC[C@@H]12 [U73122],effect on SLα mRNA expression induced by IGF-I or senktide treatment alone,[1],attenuated
same,effect on the synergistic effect on SLα mRNA expression caused by IGF-I and senktide cotreatment,[1],notably suppressed
Clc1ccc(C(c2ccc(Cl)cc2)n2cc[n+](CC(OCc3ccc(Cl)cc3Cl)c3ccc(Cl)cc3Cl)c2)cc1 (stereo not drawn) [calmidazolium],effect on SLα mRNA expression induced by IGF-I or senktide treatment alone,[1],attenuated
same,effect on the synergistic effect on SLα mRNA expression caused by IGF-I and senktide cotreatment,[1],notably suppressed
C=C[C@@]1(C)CC(=O)[C@]2(O)[C@@]3(C)[C@@H](O)CCC(C)(C)[C@@H]3[C@H](O)[C@H](OC(C)=O)[C@@]2(C)O1 [forskolin],"SLα mRNA levels, activator alone",[1],effective in elevating SLα mRNA levels
COC(=O)C1=C(C)NC(C)=C(C(=O)OC)C1c1ccccc1[N+](=O)[O-] [nifedipine],effect on SLα mRNA expression induced by IGF-I or senktide treatment alone,[1],attenuated
same,effect on the synergistic effect on SLα mRNA expression caused by IGF-I and senktide cotreatment,[1],notably suppressed
CO[C@H]1C[C@@H]2CC[C@@H](C)[C@@](O)(O2)C(=O)C(=O)N2CCCC[C@H]2C(=O)O[C@H]([C@H](C)C[C@@H]2CC[C@@H](O)[C@H](OC)C2)CC(=O)[C@H](C)/C=C(\C)[C@@H](O)[C@@H](OC)C(=O)[C@H](C)C[C@H](C)/C=C/C=C/C=C/1C [rapamycin],effect on IGF-I-induced TACR3 mRNA expression,[2],notably suppressed
COC[C@H]1OC(=O)c2coc3c2[C@@]1(C)C1=C(C3=O)[C@@H]2CCC(=O)[C@@]2(C)C[C@H]1OC(C)=O [wortmannin],effect on IGF-I-induced TACR3 mRNA expression,[2],notably suppressed
"GR64349: TACR2-specific agonist (NK2R agonist, Tocris)",IC50,grass carp TACR3,> 10 µM
"IGF-I: Human insulin-like growth factor I, purchased from Sigma","TACR3 mRNA expression, time course",[2],significantly stimulate TACR3 mRNA expression
same,"TACR3 mRNA expression, dose-dependence",[2],trigger TACR3 mRNA expression in a concentration-related fashion
same,enhancement of the stimulatory effects of TAC3 gene products on SLα mRNA expression,[1],up to 8 fold increase
same,"SLα mRNA levels, treatment alone, time course","[1]; NKBRPa 1 µM, IGF-I 100 nM (Figure 4A)",induce SLα mRNA levels
same,NKBRPa-induced SLα transcript level enhanced by IGF-I cotreatment,"[1]; NKBRPa (1 µM) + IGF-I (100 nM), especially after 12–24 h",up to 10 folds basal
"IGF-II: Human insulin-like growth factor II, purchased from Sigma","TACR3 mRNA expression, time course",[2],significantly stimulate TACR3 mRNA expression
same,"TACR3 mRNA expression, dose-dependence",[2],trigger TACR3 mRNA expression in a concentration-related fashion
same,enhancement of the stimulatory effects of TAC3 gene products on SLα mRNA expression,[1],up to 8 fold increase
"insulin: Human insulin, purchased from Sigma","TACR3 mRNA expression, dose-dependence",[2],not mimicked
